Results: US5877187A, “Benzimidazole derivatives with antihistaminic activity” (Fabrica Espanola de Productos Quimicos y Farmaceuticos S.A. …, priority 1996, dated 1999)

What was measured:
[1] = target: T1, guinea pig ileum H1 -receptor histamine (Cavia porcellus, UniProt P31389); test: Blocking of histamine-induced contractions in the isolated guinea pig ileum; format: cell-based; details: calculated, mixed antagonist
T1 construct: isolated guinea pig ileum; from tissue; host or cells: isolated guinea pig ileum
T1 sequence (P31389 whole entry): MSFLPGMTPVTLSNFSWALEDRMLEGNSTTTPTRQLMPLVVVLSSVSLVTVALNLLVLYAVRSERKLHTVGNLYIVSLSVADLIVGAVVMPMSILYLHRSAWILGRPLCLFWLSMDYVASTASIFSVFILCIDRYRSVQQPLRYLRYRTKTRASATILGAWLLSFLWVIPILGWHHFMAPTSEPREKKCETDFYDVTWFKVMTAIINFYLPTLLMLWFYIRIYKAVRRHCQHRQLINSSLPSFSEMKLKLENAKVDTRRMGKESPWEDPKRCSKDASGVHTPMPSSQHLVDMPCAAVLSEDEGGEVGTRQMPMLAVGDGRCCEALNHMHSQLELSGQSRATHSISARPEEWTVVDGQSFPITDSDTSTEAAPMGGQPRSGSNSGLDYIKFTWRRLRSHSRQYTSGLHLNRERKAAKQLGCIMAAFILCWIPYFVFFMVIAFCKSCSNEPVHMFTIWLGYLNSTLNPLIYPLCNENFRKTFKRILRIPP
Description: (§1) Compounds of formula I have useful pharmacological properties. In particular, they are potent H1 antihistamines.

[2] = tested on: histamine-induced cutaneous capillary permeability; test: Inhibition of the increment of histamine-induced cutaneous capillary permeability in rats; format: in vivo, rat
Description: as §1

[3] = tested on: acetylcholine-induced contractions in isolated guinea pig ileum; test: Antagonism of acetylcholine-induced contractions in isolated guinea pig ileum; format: cell-based; set-up: dose or concentration left out as unconfirmed
[4] = tested on: spontaneous motor activity; test: Spontaneous motor activity of the rat; format: in vivo; details: 100 mg/kg p.o.
ECG / QTc interval = test: ECG and QTc interval in rats after i.v. administration; format: in vivo, rat; details: 20 mg/kg i.v.

Compound: CCOCCn1c(C2CCN(CCc3ccc(C(C)(C)C(=O)O)cc3)CC2)nc2ccccc21 [Ib (R1 =Et), 2-[4-(2-(4-(1-(2-ethoxyethyl)benzimidazole-2-yl)piperidine-1-yl)ethyl)phenyl]-2-methylpropanoic Acid]
- pD2' [1]: 6.50
- Kb ([1]; read-out: pA2 (converted)): 7.94 to 10.5 nM
- duration of significant activity in excess of 50% ([2]; 5 mg/kg p.o.): at least 6 hours
- inhibition at 5 mg/kg ([2]; Rattus norvegicus, po, 5 mg/kg p.o., maintained for at least 6 hours, read-out: activity (inhibition of the increase in capillary permeability)): > 50%
- ED50 ([2]; Rattus norvegicus, po, read-out: DE50, inhibition of the increase in capillary permeability): ~2 mg/kg
- antagonism of acetylcholine-induced contractions [3]: not able to antagonize significantly
- effect on spontaneous motor activity [4]: does not modify
- increase of the QTc interval (ECG / QTc interval): nor does it increase the QTc interval
- morphological ECG disturbance (ECG / QTc interval): induces no morphological ECG disturbance
